Results from US7705016B2, “Regulation of food intake by modulation of long-chain fatty acyl-CoA levels in the hypothalamus” (Albert Einstein College of Medicine of Yeshiva University, priority 2003, dated 2010).
“And” between values parts separate entries of the source, which are not always exact repeats. Equal entries are not always repeated. “Also recorded” adds a separate entry of the source.

Columns and labels:
hepatic glucose fluxes = assay: Hepatic glucose fluxes (flux through Glc-6-Pase, glucose cycling, direct pathway) after ICV OA; format: in vivo, rat
Protocol: (§1) Analytical Procedures and Calculations. Plasma glucose was measured by the glucose oxidase method (Glucose Analyzer II, Beckman Instruments, Inc. Fullerton, Calif., USA). Plasma insulin and leptin levels were determined by RIA (rat Leptin RIA kit, Linco Research Inc., St. Charles, Mo.). Serum adiponectin was measured by RIA (Linco Research, Inc., St. Charles, Mo.). Plasma non-esterified fatty acid concentrations were determined an enzymatic method by an automated kit according to the manufacturer's specifications (Waco Pure Chemical Industries. Osaka, Japan). The radioactivity of [3-^3H]glucose in plasma was measured from supernatants of Ba (OH)2 and from ZnSO4 precipitates (Somogyi procedure), after each was evaporated to dryness for the removal of tritiated water. Hepatic uridine diphosphoglucose (UDP-glucose) concentrations and specific activities were obtained by two sequential chromatographic separations, as previously described (Giaccari and Rossetti, 1989; 1992; Rossetti et al., 1993; 1996). Calculations were performed as described (Barzilai et al., 1997).
ICV OA markedly decreases the in vivo flux through Glc-6-Pase. GP represents the net contribution of glucosyl units derived from gluconeogenesis and glycogenolysis. However, a portion of glucose entering the liver via phophorylation by glucokinase is also a substrate for de-phosphorylation via Glc-6-Pase. This futile cycle between glucokinase and Glc-6-Pase is commonly named glucose cycling and accounts for the difference between the total glucose output (flux through Glc-6-Pase) and GP (FIG. 9a).
In order to further delineate the mechanisms responsible for the effect of ICV OA infusion on hepatic glucose production we estimated the in vivo flux through Glc-6-Pase and the relative contribution of glucose cycling to glucose output (Table 3; FIG. 9b,c). FIG. 9b,c depict the effect of ICV OA and ICV vehicle on the rates of hepatic glucose fluxes during the pancreatic-insulin clamp procedure. […]

[1] = test system: male Sprague-Dawley (S-D) rats; assay: ICV OA infusion with pancreatic-insulin clamp (insulin action studies); format: in vivo, rat; conditions: for effect on GP: over-fed rats (HF140)
Excerpt: Insulin action studies. The experimental protocol herein was designed to examine the effect of nutritional status on the ability of long-chain fatty acids in the hypothalamus to modulate carbohydrate metabolism. Rats (n=43) were implanted with chronic catheters as previously described (Liu et al., 1998). After full recovery from the catheterization, animals were randomized into three groups HF55 (n=16), HF80 (n=9), or HF140 (n=18) and were allowed to consume their allocated diet for three days. On the night prior to the in vivo study all rats received 55 kcal to ensure a similar nutritional state at the start of the metabolic studies. All studies were performed in awake, unstressed, chronically catheterized rats. At t=−120 (FIG. 7a), a primed-continuous infusion of ICV OA (total dose 30- or 300-nmol) or Vehicle (HBP 10% in aCSF) was initiated and maintained throughout the duration of the study. Plasma glucose was measured periodically initiating at the onset (t=−120) of the ICV infusion and lasting throughout the duration of the study. Plasma samples for determination of insulin, leptin, and non-esterified fatty acid concentration were obtained at the onset (t=−120) and at 30 min intervals during the study. At t=0, and a primed-continuous infusion of HPLC-purified [3-3H]-glucose (New England Nuclear, Boston, Mass.; 40 μCi bolus, 0.4 μCi/min for duration of the study) was initiated and maintained for the last four hours of the study. Samples for determination of ^3H-glucose specific activity were obtained at 10-minute intervals throughout infusions. Finally, at t=120, a pancreatic-insulin clamp study was initiated and maintained for two hours. During this procedure, a primed-continuous infusion of regular insulin (1 mU/kg/min) was administered, and a variable infusion of 25% glucose solution was started at t=120 and periodically adjusted to clamp the plasma glucose concentration at ˜7 mM. The rate of insulin infusion was designed to replace the plasma insulin concentration at ˜the average basal levels in post-absorptive rats. In order to control for possible effects of the ICV injections on endocrine pancreas, somatostatin (3 μg/kg/min) was coinfused with insulin to inhibit endogenous insulin secretion. At the end of the in vivo studies, rats were anesthetized (pentobarbital 55 mg/kg body weight, intravenously) and tissue samples were freeze-clamped in situ with aluminum tongs pre-cooled in liquid nitrogen. All tissue samples were stored at −80° C. for subsequent analysis.
as §1, with “Hepatic uridine diphosphoglucose (UDP-glucose) concentrations and specific activities were obtained by two sequential chromatographic separations, as previously described (Giaccari and Rossetti, 1989; 1992; Rossetti et al., 1993; 1996). Calculations were performed as described (Barzilai et al., 1997).” left out

[2] = caloric restricted rats (55 kcal/d)

## CCCCCCCC/C=C\CCCCCCCC(=O)O [OA, oleic acid]
Hepatic glucose fluxes; [2]
  glucose cycling: modestly and similarly decreased
  total glucose output (in vivo flux through glucose-6-phosphatase): markedly suppressed
Hepatic glucose fluxes; over-fed rats (140 kcal/d)
  glucose cycling: modestly and similarly decreased
[1]; HF55, ICV OA 30 nmol
  inhibition of GP, decrease from basal: 71%
[1]; HF80, ICV OA 30 nmol
  GIR required to maintain euglycemia: 4.64 mg/kg/min and ~9 mg/kg/min
[1]; ICV OA 30 nmol
  effect on GP: failed to significantly alter GP
[1]; ICV OA 300 nmol
  effect on GP: failed to significantly decrease GP; also recorded: failed to significantly alter GP
[1]; pancreatic-insulin clamp, any of the experimental groups
  rate of glucose disappearance (Rd): did not significantly modify; also recorded: not significantly affected
